In ChEMBL document CHEMBL3046440, “Synthesis and antitumor evaluation of some 1,3,4-oxadiazole-2(3H)-thione and 1,2,4-triazole-5(1H)-thione derivatives” (Med Chem Res, 2012):
pIC50: −log10 of the molar value.

Tested on: K562
Assay: Cytotoxicity against Homo sapiens (human) K562 cells after 24 hr by MTT assay
Format: functional, cell-based
Conditions: K562, 24 h

## CC(C)[C@H](NC(=O)c1ccc([N+](=O)[O-])cc1)c1n[nH]c(=S)o1
  pIC50: 4.36

## C[C@H](NC(=O)c1cccnc1)c1n[nH]c(=S)o1
  pIC50: 3.13

## C[C@H](NC(=O)c1ccc(Cl)cc1)c1n[nH]c(=S)o1
  pIC50: 4.51

## C[C@H](NC(=O)c1ccccc1)c1n[nH]c(=S)n1N
  pIC50: 3.43

## CC(C)[C@H](NC(=O)c1ccccc1)c1n[nH]c(=S)o1
  pIC50: 3.61

## CC(C)[C@H](NC(=O)c1ccccc1)c1n[nH]c(=S)n1N
  pIC50: 3.81

## C[C@H](NC(=O)Cc1ccccc1)c1n[nH]c(=S)o1
  pIC50: 2.99

## C[C@H](NC(=O)c1ccccc1)c1n[nH]c(=S)o1
  pIC50: 3.42

## COc1ccc(/C=C/C(=O)N[C@H](C)c2n[nH]c(=S)o2)cc1
  pIC50: 3.48

## C[C@H](NC(=O)c1ccc(Cl)cc1)c1n[nH]c(=S)n1N
  pIC50: 4.01

## NC(=O)NO [HYDROXYUREA]
  pIC50: 3.16

## O=C(/C=C/c1ccccc1)N[C@H](CO)c1n[nH]c(=S)o1
  pIC50: 3.36
